Like-named read-outs stand apart in the source and are kept apart here.
Tests used:
[1] = system: infiltration of trachea by eosinocytes; assay: Inhibition of eosinocyte infiltration in a guinea pig asthma model; format: in vivo, guinea pig (Hartley male); conditions: 6 successive days plus 2 hours after challenge, 24 h after, control 204.5 ± 15.3, blank 67.7 ± 7.2
Protocol: In accordance with a method described by Terashi (Allergy, 37, 980-991 (1988)), groups of Hartley male guinea pigs, each group consisting of 4-7 animals (body weight: about 300 g), were exposed to chicken egg albumin (10 mg/ml) by way of inhalation using a ultrasonic nebulizer for 10 minutes a day for successive 9 days, to thereby create a sensitized state of the animals. From the following day, test compound 2 was intraperitoneally administered to each animal for successive 6 days (10 or 30 mg/kg). On day 7, metopyrone (10 mg/kg) and chlorphenylamine (10 mg/kg) were intraperitoneally administered to each animal. Thirty minutes later, each animal was exposed to chicken egg albumin (10 mg/ml) for 10 minutes by way of inhalation. In addition, 2 hours thereafter, test compound 2 was intraperitoneally administered to each animal. Twenty-four hours later, each animal was exsanguinated to death, and its trachea was removed. The trachea was fixed with formalin and embedded in paraffin, so as to prepare thin slice samples. The samples were subjected to luna staining, and eosinocytes that infiltrated were counted.

[2] = system: lymphocyte infiltration (CD3 positive cells) in mouse contact dermatitis; assay: Lymphocyte infiltration inhibitory action in mouse contact dermatitis; format: in vivo, mouse (ddy male); conditions: 6 successive days before induction, 24 h after picryl chloride; for Ear weight (difference in weight of both ears): control 4.9 ± 0.7; for Count of CD3 positive cells: control 10.8 ± 1.3
Protocol: In accordance with a method described by Asherson et al. (Immunology, 15, 405-416 (1968)), action of the compound on lymphocyte infiltration in mouse contact dermatitis was investigated. Groups of ddy male mice that had been sensitized with picryl chloride, each group consisting of 10 animals (body weight: 28-32 g), were provided for the test. Test compound 2 was intraperitoneally administered to each animal for successive 6 days before induction took place (1 or 10 mg/kg). A 1% solution of picryl chloride-olive oil (0.02 ml) was applied to an ear of each animal. Twenty-four hours later, both ears were punched (7 mm.phi.), to thereby compute the difference in weight. The ears were then embedded in paraffin, frozen, and cut in a vertical direction with respect to the ear face to prepare thin slices each having a thickness of 4 μm. CD3 positive cells were immunostained and counted.

[3] = system: leukocyte infiltration in rat carrageenin pleurisy; assay: Leukocyte infiltration inhibitory action in rat carrageenin pleurisy; format: in vivo; conditions: 2 successive days, 16 h after carrageenin; for Count of infiltrated cells: control 2.37 ± 0.06; for Pleural fluid volume: control 3.3 ± 0.3
Protocol: In accordance with a method described by Kikuchi et al. (Japan J. Pharmacol., 39, 467-473 (1985)), action of the compound on leukocyte infiltration in rat carrageenin pleurisy was investigated. Groups of SD male […], each group consisting of 6 animals (7 weeks old), were provided for the test. Test compound 2 was intraperitoneally administered to each animal for successive 2 days (10 or 30 mg/kg). Two hours after the final administration, a 2% (w/v) carrageenin solution (0.1 ml) was intrathoracically administered. Sixteen hours later, each animal was exsanguinated to death, and pleural fluid was collected. The volume of the collected pleural fluid was measured, and cells that infiltrated and present in the pleural fluid were counted.

[4] = system: mouse type II collagen arthritis; assay: Action on mouse type II collagen arthritis; format: in vivo, mouse (DBA/1 male); conditions: 30 mg/kg intraperitoneally once daily, 10 times
Protocol: The test was performed in accordance with a method described by Ranges et al. (J. Exp. Med., 162, 1105-1110 (1985)). To each of DBA/1 male mice (6-7 weeks old), 100 μg of type II collagen from bovine suspended in Freund's complete adjuvant was subcutaneously injected at the root of its tail. Twenty one days later, the mice was given a booster injection in a similar manner. The drug was intraperitoneally administered to each mouse once every day starting from 2 days prior to the booster injection until 7 days after the booster injection (a total of 10 times). The severity of arthritis was evaluated by measuring the thickness of the front foot pads. In addition, antibody titers (IgG+IgM) against type II collagen in serum were determined by ELISA.

[5] = system: adhesion of U937 cells to human umbilical vein endothelial cells (HUVEC); assay: Cell adhesion inhibitory effect: adhesion of U937 cells to IL-1β- or TNFα-stimulated HUVEC; format: cell-based; conditions: 0.75 h, 45 minutes adhesion at room temperature
Protocol: The test was performed with reference to a method described by Ross et al (J. Biol. Chem., 267, 8537-8543 (1992)). Briefly, endothelial cells derived from the human umbilical code vein (HUVEC) were cultured in a 48-well plate until they became confluent. Subsequently, IL-1β or TNFα was added. Five hours after the addition, U937 cells which are derived from human monocytes/histiocytes and FITC-labeled with PKH2 (Dainippon Seiyaku) were added to each well in an amount of 3×10^5 cells per well. After being allowed to stand for 45 minutes at room temperature, U937 cells which had not been adhered to were washed off, and the remaining cells were lysed using 1% Triton X-100. Fluorescent intensity was measured (Exi. 494 nm, Emi. 504 nm). The HUVEC cells were cultured in EGM-UV (Kurabo Industries Ltd.), and U937 cells were cultured in RPMI1640 plus 10% FCS. Each test drug (compound) was added to HUVEC simultaneously with the addition of IL-1β or TNFα, or to U937 cells 24 hours before the cell adhesion test, to thereby study the effect of the compound. The inhibitory activity was determined by the following equation: […]
(the number of drug-free U937 cells adhered to drug-free endothelial cells that have been stimulated with IL-1β or TNFα)--(the number of drug-free U937 cells adhered to drug-free endothelial cells that have not been stimulated with IL-1β or TNFα)=100%

[6] = 10 mg/kg intraperitoneally, p <0.05
[7] = 30 mg/kg intraperitoneally, p <0.01
[8] = IL-1β-stimulated HUVEC, read-out: Cell Adhesion (IC50), IL-1β Stimulation
[9] = TNFα-stimulated HUVEC, read-out: Cell Adhesion (IC50), TNFα Stimulation

COc1cc(/C=C/CCCN2CCCN(CCC/C=C/c3cc(OC)c(OC)c(OC)c3)CC2)cc(OC)c1OC [Test Compound 2, N,N'-bis-((E)-5-(3,4,5-trimethoxyphenyl)-4-pentenyl)homopiperazine.2HCl]
Infiltration of trachea by eosinocytes [1, 6]: 171.0 ± 6.5 cells/mm
Infiltration of trachea by eosinocytes [1, 7]: 122.2 ± 7.0 cells/mm
Ear weight (difference in weight of both ears) ([2]; 1 mg/kg intraperitoneally): 4.5 ± 0.8 mg/7 mm.phi.
Count of CD3 positive cells ([2]; 1 mg/kg intraperitoneally, p <0.05): 7.8 ± 0.4 cells/mm
Ear weight (difference in weight of both ears) [2, 6]: 2.9 ± 0.6 mg/7 mm.phi.
Count of CD3 positive cells ([2]; 10 mg/kg intraperitoneally, p <0.01): 4.2 ± 0.7 cells/mm
Count of infiltrated cells ([3]; 10 mg/kg intraperitoneally): 1.97 ± 0.05 × 10^8
Pleural fluid volume ([3]; 10 mg/kg intraperitoneally): 2.5 ± 0.3 mL
Count of infiltrated cells [3, 7]: 1.68 ± 0.22 × 10^8
Pleural fluid volume ([3]; 30 mg/kg intraperitoneally, p <0.05): 2.5 ± 0.3 mL
Thickness of front foot pad, after 30 days ([4]; after 30 days, control 421.3 ± 13.1, blank 361.0 ± 4.2, p <0.05): 384.8 ± 6.9 × 10^-2 mm
Antibody titer against collagen (IgG + IgM), after 33 days ([4]; serum, ELISA, after 33 days, control 1.00 ± 0.13, blank 0 ± 0.00, p <0.01): 0.43 ± 0.10 percentage with respect to the

COc1cc(/C=C\CCCN2CCCN(CCC/C=C\c3cc(OC)c(OC)c(OC)c3)CC2)cc(OC)c1OC [compound 1]
IC50 [5, 8]: 9.7 µM
IC50 [5, 9]: 8 µM

COc1cc(/C=C/CCCN2CCCN(CCC/C=C/c3cc(OC)c(OC)c(OC)c3)CC2)cc(OC)c1OC [compound 2]
IC50 [5, 8]: 9 µM
IC50 [5, 9]: 9.5 µM

COc1ccccc1/C=C/CN1CCN(C/C=C/c2ccccc2OC)CC1 [compound 3]
IC50 [5, 8]: 3.4 µM
IC50 [5, 9]: 12.9 µM

COc1ccc(/C=C/CCCN2CCN(CCC/C=C/c3ccc(OC)cc3)CC2)cc1 [compound 4]
IC50 [5, 8]: 11.1 µM
IC50 [5, 9]: 9.4 µM
